Values quoted from earlier work in patent US20050043786A1, “Methods and apparatus for treatment of aneurysmal tissue” (Medtronic AVE, Inc., priority 2003, published 2005).

Conditions: for route of clearance / elimination: in vivo

Compound	route of clearance / elimination	further results
C[C@H](CS)C(=O)N1CCC[C@H]1C(=O)O [captopril]	–	bioavailability (given orally): about 75%
CCC(=O)O[C@@H](O[P@](=O)(CCCCc1ccccc1)CC(=O)N1C[C@H](C2CCCCC2)C[C@H]1C(=O)O)C(C)C [fosinopril]	balanced elimination by the liver and kidneys	–
NCCCC[C@H](N[C@@H](CCc1ccccc1)C(=O)O)C(=O)N1CCC[C@H]1C(=O)O [lisinopril]	–	time of peak concentrations in the plasma (oral administration): about 7 hours
CCOC(=O)[C@H](CCc1ccccc1)N[C@@H](C)C(=O)N1CC2(C[C@H]1C(=O)O)SCCS2 [spirapril]	balanced elimination by the liver and kidneys	–
